Measurements published in PMC8162404, “Proteomimetic surface fragments distinguish targets by function” (Chemical Science, 2020).
Where two headings read alike, the source gives them in different places.

Assays:
Experiment in all cases: Pull-down assay with immobilized protein and LSM libraries
Gal-1 = target: T1, Gal-1 (Homo sapiens, UniProt P09382); type: binding; conditions: 1:1 binding assumed, read-out: Surface mapping KD (apparent)
T1 construct: made in house; host or cells: E. coli BL21(DE3)
Summary of the method: (§1)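 Buffers were HEPES pH 7.4 with 150 mM NaCl, plus 1 mM TCEP and 1 mM CaCl2 (50 mM HEPES) for S100A4 and S100B, 1 mM TCEP for Gal-1, and no additive for RecQ-WH. Immobilized protein at 64 µM was equilibrated 30 min with the LSM sublibrary, and unbound probes were measured by LC-MS.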

S100A4 = target: T2, S100A4 (Homo sapiens, UniProt P26447); type: binding; conditions: 1:1 binding assumed, read-out: Surface mapping KD (apparent)
T2 construct: made in house; host or cells: Escherichia coli BL21(DE3)
Summary of the method: as §1

CaM = target: T3, CaM (Bos taurus, UniProt P62157); type: binding, bovine
T3 construct: made in house; host or cells: E. coli BL21 (DE3)
Summary of the method: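 CaM buffer was 20 mM HEPES pH 7.4, 150 mM NaCl, 5 mM CaCl2. LSM sublibrary members ([…]) incubated 30 min, RT, with equimolar His-tagged protein on Co-NTA resin. HPLC-MS measured unbound probes; bound fraction relative to resin-only background gave dissociation constants.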

S100B = target: T4, S100B (Homo sapiens, UniProt P04271); type: binding; conditions: 1:1 binding assumed, read-out: Surface mapping KD (apparent)
T4 construct: made in house; host or cells: Escherichia coli BL21(DE3)
T4 sequence (P04271 1-92): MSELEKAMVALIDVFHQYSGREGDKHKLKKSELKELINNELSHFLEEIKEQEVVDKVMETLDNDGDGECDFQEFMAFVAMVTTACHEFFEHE
Summary of the method: as §1

[1] = H12 library, 1:2 stoichiometry assumed, read-out: Surface mapping KD (apparent)
[2] = H14 library, 1:2 stoichiometry assumed, read-out: Surface mapping KD (apparent)

T1 sequence (P09382 whole entry): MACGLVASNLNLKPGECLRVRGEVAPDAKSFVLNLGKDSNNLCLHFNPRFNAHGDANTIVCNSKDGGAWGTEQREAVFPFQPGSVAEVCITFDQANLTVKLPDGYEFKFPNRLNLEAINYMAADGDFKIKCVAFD
T2 sequence (P26447 whole entry): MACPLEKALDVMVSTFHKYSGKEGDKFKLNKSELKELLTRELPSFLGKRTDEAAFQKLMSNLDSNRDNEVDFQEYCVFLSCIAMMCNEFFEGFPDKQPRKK

| SMILES | Kd (Gal-1; H12 library) [µM] | Kd (S100A4; H12 library) [µM] | Kd (S100B; H12 library) [µM] | Kd (CaM; [1]) [µM] | further results |
| --- | --- | --- | --- | --- | --- |
| CC[C@H](C)[C@@H](CC(=O)N[C@H]1CCC[C@@H]1C(=O)N[C@H]1CCC[C@@H]1C(N)=O)NC(=O)[C@H]1CCC[C@@H]1NC(=O)[C@H]1CCC[C@@H]1NC(=O)C[C@H](CC(=O)O)NC(=O)[C@H]1CCC[C@@H]1NC(=O)[C@H]1CCC[C@@H]1N [H12 DI] | 249 | 449 | – | – | – |
| CC(C)C[C@@H](CC(=O)N[C@H]1CCC[C@@H]1C(=O)N[C@H]1CCC[C@@H]1C(N)=O)NC(=O)[C@H]1CCC[C@@H]1NC(=O)[C@H]1CCC[C@@H]1NC(=O)C[C@H](CC(=O)O)NC(=O)[C@H]1CCC[C@@H]1NC(=O)[C@H]1CCC[C@@H]1N [H12 DL] | 249 | 449 | – | – | – |
| CSCC[C@@H](CC(=O)N[C@H]1CCC[C@@H]1C(=O)N[C@H]1CCC[C@@H]1C(N)=O)NC(=O)[C@H]1CCC[C@@H]1NC(=O)[C@H]1CCC[C@@H]1NC(=O)C[C@H](Cc1ccccc1)NC(=O)[C@H]1CCC[C@@H]1NC(=O)[C@H]1CCC[C@@H]1N [H12 FM] | – | 197 | 39 | – | Kd (CaM): 42 µM |
| NC(=O)[C@H]1CCC[C@@H]1NC(=O)[C@H]1CCC[C@@H]1NC(=O)C[C@H](Cc1ccc(O)cc1)NC(=O)[C@H]1CCC[C@@H]1NC(=O)[C@H]1CCC[C@@H]1NC(=O)C[C@H](Cc1ccccc1)NC(=O)[C@H]1CCC[C@@H]1NC(=O)[C@H]1CCC[C@@H]1N [H12 FY] | – | 192 | 59 | – | – |
| CSCC[C@@H](CC(=O)N[C@H]1CCC[C@@H]1C(=O)N[C@H]1CCC[C@@H]1C(=O)N[C@H](CC(=O)N[C@H]1CCC[C@@H]1C(=O)N[C@H]1CCC[C@@H]1C(N)=O)Cc1ccccc1)NC(=O)[C@H]1CCC[C@@H]1NC(=O)[C@H]1CCC[C@@H]1N [H12 MF] | – | 303 | 32 | 74 | – |
| CSCC[C@@H](CC(=O)N[C@H]1CCC[C@@H]1C(=O)N[C@H]1CCC[C@@H]1C(=O)N[C@H](CC(=O)N[C@H]1CCC[C@@H]1C(=O)N[C@H]1CCC[C@@H]1C(N)=O)CC(C)C)NC(=O)[C@H]1CCC[C@@H]1NC(=O)[C@H]1CCC[C@@H]1N [H12 ML] | – | 245 | 81 | 98 | – |
| CSCC[C@@H](CC(=O)N[C@H]1CCC[C@@H]1C(=O)N[C@H]1CCC[C@@H]1C(=O)N[C@H](CC(=O)N[C@H]1CCC[C@@H]1C(=O)N[C@H]1CCC[C@@H]1C(N)=O)Cc1c[nH]c2ccccc12)NC(=O)[C@H]1CCC[C@@H]1NC(=O)[C@H]1CCC[C@@H]1N [H12 MW] | – | 170 | 26 | 42 | – |
| N=C(N)NCCC[C@@H](CC(=O)N[C@H]1CCC[C@@H]1C(=O)N[C@H]1CCC[C@@H]1C(N)=O)NC(=O)[C@H]1CCC[C@@H]1NC(=O)[C@H]1CCC[C@@H]1NC(=O)C[C@H](CC(N)=O)NC(=O)[C@H]1CCC[C@@H]1NC(=O)[C@H]1CCC[C@@H]1N [H12 NR] | – | 245 | 106 | – | – |
| NC(=O)C[C@@H](CC(=O)N[C@H]1CCC[C@@H]1C(=O)N[C@H]1CCC[C@@H]1C(=O)N[C@@H](CO)CC(=O)N[C@H]1CCC[C@@H]1C(=O)N[C@H]1CCC[C@@H]1C(N)=O)NC(=O)[C@H]1CCC[C@@H]1NC(=O)[C@H]1CCC[C@@H]1N [H12 NS] | – | 230 | – | 99 | – |
| CC(C)[C@@H](CC(=O)N[C@H]1CCC[C@@H]1C(=O)N[C@H]1CCC[C@@H]1C(N)=O)NC(=O)[C@H]1CCC[C@@H]1NC(=O)[C@H]1CCC[C@@H]1NC(=O)C[C@H](CCCNC(=N)N)NC(=O)[C@H]1CCC[C@@H]1NC(=O)[C@H]1CCC[C@@H]1N [H12 RV] | 226 | 422 | 133 | – | – |
| CC(C)[C@@H](CC(=O)N[C@H]1CCC[C@@H]1C(=O)N[C@H]1CCC[C@@H]1C(=O)N[C@@H](CCC(N)=O)CC(=O)N[C@H]1CCC[C@@H]1C(=O)N[C@H]1CCC[C@@H]1C(N)=O)NC(=O)[C@H]1CCC[C@@H]1NC(=O)[C@H]1CCC[C@@H]1N [H12 VQ] | 436 | 497 | – | – | – |
| CSCC[C@@H](CC(=O)N[C@H]1CCC[C@@H]1C(=O)N[C@H]1CCC[C@@H]1C(N)=O)NC(=O)[C@H]1CCC[C@@H]1NC(=O)[C@H]1CCC[C@@H]1NC(=O)C[C@H](Cc1c[nH]c2ccccc12)NC(=O)[C@H]1CCC[C@@H]1NC(=O)[C@H]1CCC[C@@H]1N [H12 WM] | – | 98 | 20 | 42 | – |
| CC[C@H](C)[C@@H](CC(=O)N[C@H]1CCC[C@@H]1C(=O)N[C@H]1CCC[C@@H]1C(N)=O)NC(=O)[C@H]1CCC[C@@H]1NC(=O)[C@H]1CCC[C@@H]1NC(=O)C[C@H](Cc1ccc(O)cc1)NC(=O)[C@H]1CCC[C@@H]1NC(=O)[C@H]1CCC[C@@H]1N [H12 YI] | 319 | 283 | 64 | – | – |
| CC(C)C[C@@H](CC(=O)N[C@H]1CCC[C@@H]1C(=O)N[C@H]1CCC[C@@H]1C(N)=O)NC(=O)[C@H]1CCC[C@@H]1NC(=O)[C@H]1CCC[C@@H]1NC(=O)C[C@H](Cc1ccc(O)cc1)NC(=O)[C@H]1CCC[C@@H]1NC(=O)[C@H]1CCC[C@@H]1N [H12 YL] | 402 | 180 | 81 | – | – |
| CSCC[C@@H](CC(=O)N[C@H]1CCC[C@@H]1C(=O)N[C@H]1CCC[C@@H]1C(N)=O)NC(=O)[C@H]1CCC[C@@H]1NC(=O)[C@H]1CCC[C@@H]1NC(=O)C[C@H](Cc1ccc(O)cc1)NC(=O)[C@H]1CCC[C@@H]1NC(=O)[C@H]1CCC[C@@H]1N [H12 YM] | 286 | – | 102 | 178 | – |
| NC(=O)[C@H]1CCC[C@@H]1NC(=O)[C@H]1CCC[C@@H]1NC(=O)C[C@H](Cc1ccc(O)cc1)NC(=O)[C@H]1CCC[C@@H]1NC(=O)[C@H]1CCC[C@@H]1NC(=O)C[C@H](Cc1ccc(O)cc1)NC(=O)[C@H]1CCC[C@@H]1NC(=O)[C@H]1CCC[C@@H]1N [H12 YY] | 243 | – | 128 | 443 | – |
| C[C@@H](CC(=O)N[C@H]1CCCC[C@@H]1C(N)=O)NC(=O)[C@H]1CCCC[C@@H]1NC(=O)[C@H]1CCCC[C@@H]1NC(=O)C[C@H](C)NC(=O)[C@H]1CCCC[C@@H]1N [H14 AA] | – | – | – | – | Kd (CaM; [2]): 402 µM; Kd (Gal-1; H14 library): 326 µM; Kd (S100A4; H14 library): 205 µM |
| C[C@@H](CC(=O)N[C@H]1CCCC[C@@H]1C(=O)N[C@H]1CCCC[C@@H]1C(=O)N[C@@H](CCCNC(=N)N)CC(=O)N[C@H]1CCCC[C@@H]1C(N)=O)NC(=O)[C@H]1CCCC[C@@H]1N [H14 AR] | – | – | – | – | Kd (CaM; [2]): 126 µM; Kd (Gal-1; H14 library): 348 µM; Kd (S100B; H14 library): 126 µM |
| NC(=O)C[C@@H](CC(=O)N[C@H]1CCCC[C@@H]1C(N)=O)NC(=O)[C@H]1CCCC[C@@H]1NC(=O)[C@H]1CCCC[C@@H]1NC(=O)C[C@H](Cc1ccccc1)NC(=O)[C@H]1CCCC[C@@H]1N [H14 FN] | – | – | – | – | Kd (CaM; [2]): 90 µM; Kd (S100A4; H14 library): 337 µM |
| CC(C)C[C@@H](CC(=O)N[C@H]1CCCC[C@@H]1C(=O)N[C@H]1CCCC[C@@H]1C(=O)N[C@@H](CCC(=O)O)CC(=O)N[C@H]1CCCC[C@@H]1C(N)=O)NC(=O)[C@H]1CCCC[C@@H]1N [H14 LE] | – | – | – | – | Kd (Gal-1; H14 library): 463 µM; Kd (S100A4; H14 library): 427 µM |
| NCCCC[C@@H](CC(=O)N[C@H]1CCCC[C@@H]1C(N)=O)NC(=O)[C@H]1CCCC[C@@H]1NC(=O)[C@H]1CCCC[C@@H]1NC(=O)C[C@H](CO)NC(=O)[C@H]1CCCC[C@@H]1N [H14 SK] | – | – | – | – | Kd (CaM; [2]): 91 µM; Kd (Gal-1; H14 library): 438 µM; Kd (S100B; H14 library): 181 µM |
| NC(=O)[C@H]1CCCC[C@@H]1NC(=O)C[C@H](CCC(=O)O)NC(=O)[C@H]1CCCC[C@@H]1NC(=O)[C@H]1CCCC[C@@H]1NC(=O)C[C@H](Cc1ccc(O)cc1)NC(=O)[C@H]1CCCC[C@@H]1N [H14 YE] | – | – | – | – | Kd (S100A4; H14 library): 371 µM |
